Test results as given in patent publication US20180133221A1, “ADMINISTRATION OF UBIQUITIN-ACTIVATING ENZYME INHIBITOR AND CHEMOTHERAPEUTIC AGENTS” (Millennium Pharmaceuticals, Inc., priority 2014, published 2018).

Experiments:
[1] = tested on: PHTX-02B breast xenograft; test: PHTX-02B xenograft model, Compound 1 and docetaxel; assay type: in vivo, SCID-NOD mice; details: for Tumor Volume Day 21: in mm³ (unit assumed)
Procedure: Docetaxel (Henry Schein, Inc., Pittsburgh Pa.) is formulated in 0.9% saline and administered by intravenous injection (IV) once weekly (QW) at 5 mg/kg or 10 mg/kg. […] Tumors were measured twice weekly using vernier calipers.

[2] = tested on: PHTX-24C colon xenograft; test: PHTX-24C xenograft model, Compound 1 and oxaliplatin; assay type: in vivo, CB-17 SCID mice
Procedure: Oxaliplatin (Jiang Su Geng Rui Pharmaceuticals, Inc.) is formulated in 0.9% saline and administered by IP injection once weekly (QW) at 7.5 or 12.5 mg/kg. The once weekly schedule is also described as every 7 days (Q7D).
(§1) Compound 1 [((1R,2R,3S,4R)-2,3-dihydroxy-4-(2-(3-(trifluoromethylthio)-phenyl)pyrazolo[1,5-a]pyrimidin-7-ylamino)cyclopentyl)methyl sulfamate] is formulated in 10-20% HPbCD in sterile water and administered intravenously (IV) or subcutaneously (SC) on a BIW (twice/week schedule; Monday and Thursday or Tuesday and Friday) for either 2-4 weeks.
(§2) Tumors were measured twice weekly using vernier calipers. Tumor volumes were calculated using the standard formula V=W^2×L/2,). When mean tumor volumes reached approximately 200 mm^3 for PHTX-24C, 220 mm^3 for PHTX-Lu132, 150 mm^3 for CTG-0256, 260 mm^3 for CTG-0486, 185 mm^3 for PHTX-17C, 260 mm^3 for CTG-0165, 150 mm^3 for PHTX-14B in the study of Compound 1 and paclitaxel, 180 mm^3 for PHTX-14B in the study of Compound 1 and docetaxel, 200 mm^3 for SKOV-3, 220 mm^3 for PHTX-02B in the study of Compound 1 and docetaxel, 250 mm^3 for PHTX-02B in the study of Compound 1 and paclitaxel, 195 mm^3 for CTG-0159, 180 mm^3 for CTG-0012 or 150 mm^3 for Calu-6, mice were randomized into groups of n=5-7/arm as described in the tables below, and injected with vehicle, Compound 1 or agents (docetaxel, paclitaxel, oxaliplatin, cisplatin or carboplatin), or the combination of Compound 1 plus one of the agents, at various doses and schedules as described in tables below. Tumor size and body weight were measured approximately twice a week for the duration of the study. Mice are euthanized when their tumor volume reached 10% of their body weight, or when the average tumor volume of a treatment or control group reached approximately 2000 mm^3. Tumor growth continued to be monitored after the dosing period in some studies. Average tumor volume is reported as a function of time for selected arms of selected studies in the Figures.
(§3) Measurements from day 0 to day 14, day 19, day 21, or day 28 are analyzed as specified in Tables below. All tumor volumes have a value of 1 added to them before log10 transformation. For each animal, the log tumor volume at day 0 is subtracted from the log tumor volume on the subsequent days. This difference vs. time is used to calculate an area under the curve (AUC) for each animal using the trapezoid rule. […] The synergy score for the combination of agents A and B is defined as
(§4) 100*(mean(AUCAB)−mean(AUCA)−mean(AUCB)+mean(AUCctl))/mean(AUCctl):
where AUCAB, AUCA, AUCB, and AUCctl are the AUC values for animals in the combination group, the A group, the B group, and the control group, respectively. […]

[3] = tested on: Calu-6 non-small cell lung cancer xenograft; test: Calu-6 xenograft model, Compound 1 and docetaxel; assay type: in vivo, nude mice; details: for Tumor Volume Day 21: in mm³ (unit assumed)
Procedure: Calu-6 is a non-small cell lung cancer cell-lined derived xenograft model. Nine week old female nude mice (Taconic Farms, Inc) were inoculated subcutaneously in the flank (cell suspension) with 4.0×10^6 Calu-6 cells suspended in serum free MEM. […] Docetaxel (Henry Schein, Inc., Pittsburgh Pa.) is formulated in 0.9% saline and administered by intravenous injection (IV) once weekly (QW) at 5 mg/kg or 10 mg/kg. […] Tumors were measured twice weekly using vernier calipers.

[4] = tested on: CTG-0256 human ovarian xenograft; test: CTG-0256 xenograft model, Compound 1 and carboplatin; assay type: in vivo, Mus musculus/nu/nu mice; details: for Volume Tumor Day 14: in mm³ (unit assumed)
Description: The CTG-0256 model of human ovarian xenograft model was established from a patient-derived tumor collected during surgery at primary site from a person with ovarian cancer (serous adenocarcinoma with resistant response to carboplatin or paclitaxel). CTG-0256 tumor fragments (approximately 2×2×3 mm^3) were implanted into the subcutaneous space in the right dorsal flank of female Mus musculus/nu/nu mice (age 6-9 weeks, Harlan Laboratories, Madison, Wis.) using a 13-gauge trocar. When the mean tumor volume reached approximately 150 mm^3, the animals were randomized into 7 treatment groups (n=7/group).
(§5) Carboplatin (Teva Pharmaceuticals) is formulated in 0.9% saline and administered by IP injection once weekly (QW) at 25, 50, 60, and 75 mg/kg. The once weekly schedule is also described as every 7 days (Q7D).
as §1, §2, §3, §4
(§6) where AUCAB, AUCA, AUCB, and AUCctl are the AUC values for animals in the combination group, the A group, the B group, and the control group, respectively. The standard error of the synergy score is computed based on the variation in the AUC values among the animals. […] If the P-value is above 0.05, then the combination is considered to be additive. If the P-value is below 0.05, and the synergy score is less than zero, then the combination is considered to be synergistic.

[5] = tested on: SKOV-3 ovarian cell-line derived xenograft; test: SKOV-3 xenograft model, Compound 1 and carboplatin; assay type: in vivo, nude mice; details: for Tumor Volume Day 14: in mm³ (unit assumed)
Procedure: SKOV-3 is an ovarian cell-line derived xenograft. Ten week old female nude mice (Taconic Farms, Inc) were inoculated subcutaneously in flank (cell suspension) with 4.0×10^6 SKOV-3 cells suspended in serum free DMEM+Matrigel. When the mean tumor volume reached approximately 200 mm^3, the animals were randomized into 12 treatment groups (n=5/group).
as §5, §1, §2, §3, §4, §6

[6] = tested on: PHTX-02B breast xenograft; test: PHTX-02B xenograft model, Compound 1 and paclitaxel; assay type: in vivo, SCID-NOD mice
Procedure: Paclitaxel (Bristol-Myers Squibb Company) is formulated in 0.9% saline and administered by intravenous injection (IV) on every 4 days (Q4D) or once weekly (QW) at 10 and 20 mg/kg. […] Tumors were measured twice weekly using vernier calipers.

NS(=O)(=O)OC[C@H]1C[C@@H](Nc2ccnc3cc(-c4cccc(SC(F)(F)F)c4)nn23)[C@H](O)[C@@H]1O [Compound 1, ((1R,2R,3S,4R)-2,3-dihydroxy-4-(2-(3-(trifluoromethylthio)phenyl)pyrazolo[1,5-a]pyrimidin-7-ylamino)cyclopentyl)methyl sulfamate]
Tumor Volume Day 21 ([1]; 7.5 mg/kg Compound 1 BIWx3 SC): 596.5 | Tumor Volume Day 21 ([1]; 15 mg/kg Compound 1 BIWx3 SC): 324.8 | Tumor Volume Day 21 ([1]; 20 mg/kg Compound 1 BIWx3 IV): 178.8 | Tumor Volume Day 21 ([1]; 20 mg/kg Compound 1 BIWx3 SC): 185 | tumor growth compared to the vehicle control group ([1]; single agent Compound 1 SC at 7.5, 15 and 20 mg/kg BIW, IV also 20 mg/kg BIW): inhibited tumor growth | Tumor Volume Day 21 ([2]; 10 mg/kg Compound 1 BIWx3 IV, in mm³ (unit assumed)): 609.3 | anti-tumor activity compared to vehicle control ([2]; single agent Compound 1 IV at 10 mk/kg BIW): modest anti-tumor activity | Tumor Volume Day 21 ([3]; 5 mg/kg Compound 1 BIWx3 IV): 1302.2 | Tumor Volume Day 21 ([3]; 10 mg/kg Compound 1 BIWx3 IV): 1346.4 | Tumor Volume Day 21 ([3]; 15 mg/kg Compound 1 BIWx3 IV): 1072.4 | anti-tumor responses compared to the vehicle control ([3]; single agent Compound 1 IV at 5, 10 and 20 mg/kg IV BIW): modest anti-tumor responses | Volume Tumor Day 14 ([4]; 6.25 mg/kg Compound 1 BIWx2 IV): 1291.5 | Volume Tumor Day 14 ([4]; 15 mg/kg Compound 1 BIWx2 IV): 1638.6 | Volume Tumor Day 14 ([4]; 20 mg/kg Compound 1 BIWx2 IV): 1406.7 | anti-tumor activity compared to vehicle control ([4]; single agent Compound 1 IV at 20, 15, 6.25 mg/kg BIW): modest to weak anti-tumor activity | Tumor Volume Day 14 ([5]; 5 mg/kg Compound 1 BIWx2 IV): 857.2 | Tumor Volume Day 14 ([5]; 10 mg/kg Compound 1 BIWx2 IV): 883 | Tumor Volume Day 14 ([5]; 15 mg/kg Compound 1 BIWx2 IV): 919.2 | anti-tumor activity compared to vehicle control ([5]; single agent Compound 1 IV at 5, 10 and 15 mg/kg BIW): modest anti-tumor activity | Tumor Volume Day 19 ([6]; 6.25 mg/kg Compound 1 BIWx3 IV, in mm³ (unit assumed)): 1850.4 | anti-tumor activity compared to vehicle control ([6]; single agent Compound 1 IV at 6.25, and 12.5 mg/kg BIW for 3 weeks): minimal to modest anti-tumor activity
